In PMC12525867, “Aromaticity Tuning in Biaryl Monophosphines and Their Derivatives” (Molecules, 2025):
Converted amounts (≈) assume the structure as drawn. Like-named read-outs stand apart in the source and are kept apart here.

Tests used:
S. aureus ATCC 29213 = assay: Antibacterial screening, broth microdilution (MIC/MBC); type: cell-based, Staphylococcus aureus; settings: for MIC: S. aureus ATCC 29213, MHB, 24 h, 35 °C; for MBC: S. aureus ATCC 29213
Protocol: (§1) The antimicrobial activities of a series of compounds 1–5 were tested through the utilization of seven reference species, encompassing both Gram-positive (Staphylococcus aureus ATCC 29213, Staphylococcus epidermidis ATCC 12228, Micrococcus luteus ATCC 10240) and Gram-negative (Escherichia coli ATCC 25922, Klebsiella pneumoniae ATCC 13883, Proteus mirabilis ATCC 12453, Acinetobacter baumannii ATCC 19606) bacteria as model microorganisms. For this purpose, microbial suspensions were prepared in sterile saline (0.85% NaCl) with an optical density of 0.5 McFarland standard, yielding a concentration of 150 × 10^6 CFU/mL (CFU, colony-forming units). All of the stock solutions of the tested compounds were dissolved in DMSO. Amoxicillin (Glentham Life Sciences Ltd., Corsham, UK) was used as a positive control.
(§2) The MIC values of the tested compounds were determined by serial twofold dilutions of 1–5 in Mueller Hinton Broth (MHB, Biomaxima, Lublin, Poland). The range of final 1–5 concentrations used was from 0.49 up to 1000 μg/mL, and for amoxicillin from 0.12 up to 250 μg/mL in the 96-well microtiter plates (Medlab, Raszyn, Poland), starting with 98 μL MHB and 2 μL bacterial inoculum added to each well. Positive controls consisted of 100 μL MHB in each well with the tested compounds at the same concentration range. The negative controls consisted of 100 μL of MHB only. Each set of tests and controls was established with three replicates. The microtiter plates were then subjected to an incubation period of 24 h at a temperature of 35 ± 2 °C. After incubation, the optical density of the microbial growth was measured at a wavelength of 600 nm using a microplate reader, the Biotek Elx800 (BioTek Instruments, Inc., Winooski, VT, USA). The MIC value was defined as the lowest concentration of the tested compound at which there was no visible growth of the tested microorganisms. The determination of the MIC values was achieved by employing the broth microdilution method, in accordance with the recommendations of the European Committee on Antimicrobial Susceptibility Testing (EUCAST). […] Then, the MHA plates were incubated overnight at 35 ± 2 °C. […] The MIC and MBC values were reported in μg/mL, according to the EUCAST reference.

[1] = tested on: S. epidermidis ATCC 12228; assay: as above; type: cell-based, Staphylococcus epidermidis; settings: for MIC: S. epidermidis ATCC 12228, MHB, 24 h, 35 °C
Protocol: as §1, §2

M. luteus ATCC 10240 = assay: as above; type: cell-based, Micrococcus luteus; settings: for MIC: ATCC10240, 24 h, M. luteus ATCC 10240, MHB, 24 h, 35 °C; for MBC: M. luteus ATCC 10240
Protocol: as §1, §2

E. coli ATCC 25922 = assay: as above; type: cell-based, Escherichia coli; settings: for MIC: E. coli ATCC 25922, MHB, 24 h, 35 °C
Protocol: as §1, §2

K. pneumoniae ATCC 13883 = assay: as above; type: cell-based, Klebsiella pneumoniae; settings: for MIC: K. pneumoniae ATCC 13883, MHB, 24 h, 35 °C
Protocol: as §1, §2

P. mirabilis ATCC 12453 = assay: as above; type: cell-based, Proteus mirabilis; settings: for MIC: P. mirabilis ATCC 12453, MHB, 24 h, 35 °C
Protocol: as §1, §2

A. baumannii ATCC 19606 = assay: as above; type: cell-based, Acinetobacter baumannii; settings: for MIC: A. baumannii ATCC 19606, MHB, 24 h, 35 °C
Protocol: as §1, §2

[2] = Cytotoxicity, microculture tetrazolium (MTT) test, VERO; type: cell-based; settings: African green monkey, ATCC CCL-81; VERO (normal kidney cells), 24 h incubation, MTT; ± SD
Protocol: (§3) The cytotoxicity of biaryl monophosphines was tested in vitro in normal (VERO) and cancer-derived (H1HeLa) cells after 24 h of incubation using a microculture tetrazolium test. Table 2 presents the CC50 (concentrations decreasing the cellular viability by 50%) values calculated from dose–response cytotoxicity curves (Figure 4).
(§4) Cytotoxicity was evaluated using a microculture tetrazolium test as previously described, and details can be found in the Supplementary Materials. The cell lines used in the presented study were acquired from the American Type Culture Collection (ATCC); the one used for cytotoxicity testing included non-cancerous VERO (kidney; ATCC CCL-81) cells and cancer-originating H1HeLa (cervical adenocarcinoma; ATCC CRL-1958) cells. VERO cells were cultured in Dulbecco’s Modified Eagle’s Medium (DMEM; Corning, Tewksbury, MA, USA), while Eagle’s Minimum Essential Medium (MEM; Corning) was used for H1HeLa. Antibiotics (penicillin–streptomycin solution, Corning) and fetal bovine serum (FBS, Corning) were added to cell media. Cells were incubated in a 5% CO2 atmosphere at 37 °C (CO2 incubator, Panasonic Healthcare Co., Tokyo, Japan). Briefly, the monolayers of VERO or H1HeLa cells in 96-well plates (Falcon, Corning) were treated with serial dilutions of selected compounds for 24 h. After this, the medium was removed, the plates were washed with phosphate buffered saline (PBS; Corning), a 10% solution of (3-(4,5-dimethylthiazol-2-yl)-2,5-diphenyltetrazolium bromide (MTT; Sigma-Aldrich, St. Louis, MO, USA) (5 mg/mL) in FBS-free cell media was added, and the incubation continued for the next 4 h. Subsequently, the precipitated formazan crystals were dissolved, and after overnight incubation at 37 °C, the Synergy H1 Multi-Mode Microplate Reader (BioTek Instruments, Inc., Winooski, VT, USA) with Gen5 software (ver. 3.09.07; BioTek Instruments, Inc.) was used for absorbance acquisition (540 and 620 nm). Data was exported to GraphPad Prism (ver. 10) to calculate the CC50 values (50% cytotoxic concentration) from dose–response curves.
(§5) Aromaticity Tuning in Biaryl Monophosphines and Their Derivatives […]
(§6) Cell line maintenance and in vitro experiments
(§7) The cytotoxicity of selected biaryl monophosphines was evaluated in vitro towards normal VERO (ATCC, CCL-81) cells and cancer-derived cell line H1HeLa (cervical adenocarcinoma; ATCC (American Type Culture Collection) CRL-1958) using 3-(4,5-dimethylthiazol-2-yl)-2,5-diphenylte-trazolium bromide (MTT) based protocol.
(§8) Media used for in vitro culturing included Dulbecco's Modified Eagle's Medium (DMEM, Corning, Tewksbury, MA, USA) used for VERO cells and Modified Eagle Medium (MEM, Corning) used for H1HeLa. Cell media used in the experiments were supplemented with antibiotics (Penicil-lin-Streptomycin Solution, Corning) and fetal bovine serum (FBS, Corning) – 10% (cell passaging) and 2% (cell maintenance and experiments). Phosphate-buffered saline (PBS) and trypsin were bought from Corning, whereas MTT (3-(4,5-dimethylthiazol-2-yl)-2,5-diphenyltetrazolium bromide) from Sigma (Sigma-Aldrich, St. Louis, MO, USA). SDS was purchased from PanReac Applichem (Darmstadt, Germany). Incubation was carried out in a 5% CO2 atmosphere at 37°C (CO2 incubator, Panasonic Healthcare Co., Tokyo, Japan).
(§9) Concentrations of cells for passaging were as follows: VERO – 1.5*10^5 cells/mL, H1HeLa – 2*10^5 cells/mL. Routine observations of cell cultures and experiments were carried out using an in-verted microscope (CKX41, Olympus Corporation, Tokyo, Japan) equipped with a ca mera (Moti-cam 3+, Motic, Hong Kong), and the results were recorded (Motic Images Plus 2.0, Motic).
(§10) Stock solutions of biaryl monophosphines were prepared by dissolving the samples in cell culture grade DMSO (PanReac Applichem).
(§11) Evaluation of cytotoxicity
(§12) Cytotoxicity was tested using an MTT-based protocol. The cells were passaged into 96-well plates (Falcon, TC-treated, Corning) and, after overnight incubation, treated with serial dilutions of […]

[3] = Cytotoxicity, microculture tetrazolium (MTT) test, H1HeLa; type: cell-based; settings: human, H1HeLa cells (cervical adenocarcinoma, ATCC CRL-1958); H1HeLa (cervical adenocarcinoma), 24 h incubation, MTT; ± SD
Protocol: as §3, §4, §5, §6, §7, §8, §9, §10, §11, §12

VERO cells = assay: Cytotoxicity, microculture tetrazolium (MTT) test, VERO; type: cell-based
Protocol: as §3, §4, §5, §6, §7, §8, §9, §10, §11, §12

H1HeLa cells = assay: Cytotoxicity, microculture tetrazolium (MTT) test, H1HeLa; type: cell-based
Protocol: as §3, §4, §5, §6, §7, §8, §9, §10, §11, §12

[4] = Staphylococcus aureus, ATCC29213, read-out: MIC
[5] = Staphylococcus aureus, ATCC29213, read-out: MBC
[6] = Staphylococcus epidermidis, ATCC12228, read-out: MIC
[7] = Staphylococcus epidermidis, ATCC12228, S. epidermidis ATCC 12228, read-out: MBC
[8] = Micrococcus luteus, ATCC10240, read-out: MBC
[9] = Escherichia coli, ATCC25922, read-out: MIC
[10] = Klebsiella pneumoniae, ATCC13883, read-out: MIC
[11] = Proteus mirabilis, ATCC12453, read-out: MIC
[12] = Acinetobacter baumannii, ATCC19606, read-out: MIC

Compound | MIC (S. aureus ATCC 29213; [4]) [µg/mL] | MBC (S. aureus ATCC 29213; [5]) [µg/mL] | MIC [1, 6] [µg/mL] | MBC [1, 7] [µg/mL] | MIC (M. luteus ATCC 10240; Micrococcus luteus) [µg/mL] | MBC (M. luteus ATCC 10240; [8]) [µg/mL] | MIC (E. coli ATCC 25922; [9]) [µg/mL] | MIC (K. pneumoniae ATCC 13883; [10]) [µg/mL] | MIC (P. mirabilis ATCC 12453; [11]) [µg/mL] | MIC (A. baumannii ATCC 19606; [12]) [µg/mL] | also measured
CC1(C)S[C@@H]2[C@H](NC(=O)[C@H](N)c3ccc(O)cc3)C(=O)N2[C@H]1C(=O)O [Amox, Amoxicillin, reference compound] | 0.98 (≈ 2.68 µM) | 0.98 (≈ 2.68 µM) | 31.2 (≈ 85.5 µM) | 31.2 (≈ 85.5 µM) | 31.2 (≈ 85.5 µM) | 31.2 (≈ 85.5 µM) | 3.91 (≈ 10.7 µM) | 250 (≈ 684 µM) | 0.49 (≈ 1.34 µM) | 125 (≈ 342 µM) | MBC (E. coli ATCC 25922; Escherichia coli, ATCC25922, E. coli ATCC 25922): 7.81 µg/mL (≈ 21.4 µM); MBC (K. pneumoniae ATCC 13883; Klebsiella pneumoniae, ATCC13883, K. pneumoniae ATCC 13883): 250 µg/mL (≈ 684 µM); MBC (P. mirabilis ATCC 12453; Proteus mirabilis, ATCC12453, P. mirabilis ATCC 12453): 0.49 µg/mL (≈ 1.34 µM); MBC (A. baumannii ATCC 19606; Acinetobacter baumannii, ATCC19606, A. baumannii ATCC 19606): 125 µg/mL (≈ 342 µM)
COc1ccccc1-c1c(P(=O)(C2CCCCC2)C2CCCCC2)c(O)c2ccccc2c1O [Compound 4, 2-(Dicyclohexylphosphoryl)-3-(2-methoxyphenyl)naphthalene-1,4-diol] | 250 (≈ 522 µM) | > 1000 | 500 (≈ 1040 µM) | > 1000 | 15.6 to 31.2 (≈ 32.7 to 65.3 µM) | > 1000 | 500 to 1000 (≈ 1040 to 2090 µM) | 500 (≈ 1040 µM) | 1000 (≈ 2090 µM) | 1000 (≈ 2090 µM) | CC50 at 24 h [2]: 4.7 ± 0.41 µg/mL; CC50 at 24 h [3]: 5.53 ± 0.12 µg/mL
Dicyclohexyl[1,4-dimethoxy-3-(2,4,6-trimethoxyphenyl)naphthalen-2-yl]phosphane [Compound 5] | – | – | – | – | – | – | – | – | – | – | CC50 (VERO cells): 89.88 ± 4.11 µg/mL; CC50 (H1HeLa cells): 200.85 ± 13.08 µg/mL; MBC (S. aureus ATCC 29213): >1000 µg/mL; MIC (S. aureus ATCC 29213): 125 to 250 µg/mL; MBC ([1]; S. epidermidis ATCC 12228): 1000 µg/mL; type of activity (bactericidal or bacteriostatic) ([1]; S. epidermidis ATCC 12228): bactericidal; MIC [1]: 31.25 to 62.5 µg/mL; MBC (M. luteus ATCC 10240): 125 µg/mL; MIC (E. coli ATCC 25922): >1000 µg/mL; MIC (K. pneumoniae ATCC 13883): >1000 µg/mL; MIC (P. mirabilis ATCC 12453): >1000 µg/mL; MIC (A. baumannii ATCC 19606): 1000 µg/mL
